Source: ChEMBL document CHEMBL5210121, “Affinity On-target Cellular Literature for EUbOPEN Chemogenomics Library wave 3” (2023)

Key:
[1] = molecular target: Histone-lysine N-methyltransferase, H3 lysine-79 specific (Homo sapiens, UniProt Q8TEK3); experiment: Affinity On-target Cellular interaction (Western Blot (reduction of H3K79 dimethylation in A431 cells by DOT1L)) EUB0000216b DOT1L; assay type: cell-based; design: mode of action Inhibitor, recommended concentration 1 uM
[2] = molecular target: T1, Leucine-rich repeat serine/threonine-protein kinase 2 (Homo sapiens, UniProt Q5S007); experiment: Affinity On-target Cellular interaction (Cellular assay (LRRK2 phosphorylation)) EUB0000629a LRRK2; design: mode of action Inhibitor, recommended concentration 100 nM
[3] = molecular target: Bromodomain adjacent to zinc finger domain protein 2A (Homo sapiens, UniProt Q9UIF9); experiment: Affinity On-target Cellular interaction (Chemoproteomic competition binding assay (endogenous full-length BAZ2A from HuT78 extracts)) EUB0000267b BAZ2A; design: mode of action Negative control for GSK2801, recommended concentration 1 uM
[4] = molecular target: Bromodomain adjacent to zinc finger domain protein 2B (Homo sapiens, UniProt Q9UIF8); experiment: Affinity On-target Cellular interaction (Chemoproteomic competition binding assay (endogenous full-length BAZ2B captured on the GSK8573 affinity matrix from HuT-78 cell lysate) ) EUB0000267b BAZ2B; design: mode of action Negative control for GSK2801, recommended concentration 1 uM
[5] = molecular target: Transient receptor potential cation channel subfamily A member 1 (Homo sapiens, UniProt O75762); experiment: Affinity On-target Cellular interaction (Electrophysiological assay (inhibition of AITC (allylthiocyanate, 100 µmol/L)-evoked currents in HEK293F cells transiently overexpressing hTRPA1)) EUB0000308b TRPA1; assay type: cell-based; design: mode of action Antagonist, recommended concentration 1 uM
CREB-binding protein = CREB-binding protein (Homo sapiens, UniProt Q92793); experiment: Affinity On-target Cellular interaction (NanoBRET assay (HEK293T cells)) EUB0000195c CREBBP; design: mode of action Inhibitor, recommended concentration 1 uM
[6] = molecular target: Chromatin remodeling regulator CECR2 (Homo sapiens, UniProt Q9BXF3); experiment: Affinity On-target Cellular interaction (NanoBRET assay (dose-dependent displacement from histone H3.3 in HEK293T cells)) EUB0000201c CECR2; assay type: cell-based; design: mode of action Inhibitor, recommended concentration 1 uM
[7] = molecular target: Histone acetyltransferase KAT2A (Homo sapiens, UniProt Q92830); experiment: Affinity On-target Cellular interaction (Competing pull-down assay (full-length GCN5 from cell lysates using immobilized L-Moses)) EUB0000218c KAT2A; design: mode of action Inhibitor, recommended concentration 1 uM
[8] = molecular target: Histone acetyltransferase KAT2B (Homo sapiens, UniProt Q92831); experiment: Affinity On-target Cellular interaction (Competing pull-down assay (full-length PCAF from cell lysates using immobilized L-Moses)) EUB0000218c KAT2B; design: mode of action Inhibitor, recommended concentration 1 uM
[9] = Affinity On-target Cellular interaction (Binding assay in HEK293 cells) EUB0000337aCl P2RY14
[10] = molecular target: T2, Nucleosome-remodeling factor subunit BPTF (Homo sapiens, UniProt Q12830); experiment: Affinity On-target Cellular interaction (NanoBRET assay (HEK293T cells)) EUB0000254b BPTF; design: mode of action Negative control for NVS-BPTF-1, recommended concentration 1 uM
[11] = molecular target: T2, Nucleosome-remodeling factor subunit BPTF
[12] = molecular target: Histone-lysine N-methyltransferase SETD7 (Homo sapiens, UniProt Q8WTS6); experiment: Affinity On-target Cellular interaction (Immunoblot (increase in nuclear YAP levels by treatment of MEFs (from Setd7+/+ mice) with 10 µM PFI-2)) EUB0000196bCl SETD7; design: mode of action Inhibitor, recommended concentration 1 uM
[13] = molecular target: P2Y purinoceptor 14 (Homo sapiens) (UniProt Q15391); conditions: Affinity On-target Cellular Source Knowledge https://pubs.acs.org/doi/10.1021/jm200400m,https://pubs.acs.org/doi/10.1021/ml300280g, https://www.sgc-ffm.uni-frankfurt.de/#!specificprobeoverview/MSD-M1PAM
[14] = molecular target: Mas-related G-protein coupled receptor member X2 (Homo sapiens, UniProt Q96LB1); experiment: Affinity On-target Cellular interaction (PRESTO-Tango concentration response assay (by the NIMH-PDSP)) EUB0000345a MRGPRX2; design: mode of action Negative control for (R)-ZINC 3573, recommended concentration 1 uM
D(4) dopamine receptor = D(4) dopamine receptor (Homo sapiens, UniProt P21917); experiment: Affinity On-target Cellular interaction (Fluorometric Imaging Plate Reader (FLIPR) Assay (agonist activity at human D4.4 receptor in HEK293 cells coexpressing G-alpha-qo5)) EUB0000332a DRD4; assay type: cell-based; design: mode of action Negative control for ABT-724, recommended concentration 100 nM
[15] = molecular target: Cystic fibrosis transmembrane conductance regulator (Homo sapiens, UniProt P13569, F508DEL); experiment: Affinity On-target Cellular interaction (CFTR Restoration Trans-Epithelial Current Clamp (TECC) assay (in HBE cells from F508del CF patients)) EUB0000264b CFTR; assay type: cell-based; design: mode of action Negative control for A-1596586, recommended concentration 1 uM
[16] = molecular target: Endothelin receptor type B (Homo sapiens, UniProt P24530); experiment: Affinity On-target Cellular interaction (Cellular functional assay (antagonist effect, Eurofins)) EUB0000339a EDNRB; design: mode of action Negative control for A-192621, recommended concentration 100 nM
Activin receptor type-1B = Activin receptor type-1B (Homo sapiens, UniProt P36896); experiment: Affinity On-target Cellular interaction (NanoBRET assay (HEK293T cells)) EUB0000710a ACVR1B
TGF-beta receptor type-1 = TGF-beta receptor type-1 (Homo sapiens, UniProt P36897); experiment: Affinity On-target Cellular interaction (NanoBRET assay (HEK293T cells)) EUB0000710a TGFBR1
[17] = molecular target: Inhibitor of nuclear factor kappa-B kinase subunit epsilon (Homo sapiens, UniProt Q14164)
[18] = molecular target: Serine/threonine-protein kinase TBK1 (Homo sapiens, UniProt Q9UHD2)
[19] = molecular target: Proteinase-activated receptor 1 (Homo sapiens, UniProt P25116); experiment: Affinity On-target Cellular interaction (Functional cellular assay in HEK cells expressing F2R) EUB0000333a F2R; assay type: cell-based; design: mode of action Negative control for BAY-386, recommended concentration 100 nM
[20] = molecular target: Lutropin-choriogonadotropic hormone receptor (Homo sapiens, UniProt P22888); experiment: Affinity On-target Cellular interaction (Cell-based assay (LH Antagonism)) EUB0000340a LHCGR; design: mode of action Negative control for BAY-899, recommended concentration 1 uM
[21] = molecular target: Bifunctional epoxide hydrolase 2 (Homo sapiens, UniProt P34913); experiment: Affinity On-target Cellular interaction (ELISA (inhibition of sEH in human Hep G2 cells)) EUB0000542a EPHX2; assay type: cell-based; design: mode of action Inhibitor, recommended concentration 100 nM
[22] = molecular target: Mitogen-activated protein kinase 1 (Homo sapiens, UniProt P28482); experiment: Affinity On-target Cellular interaction (Cellular assay (inhibition of RSK phosphorylation, A375SM cells)) EUB0000700a MAPK1
[23] = molecular target: Serine/threonine-protein kinase PLK1 (Homo sapiens, UniProt P53350); experiment: Affinity On-target Cellular interaction (ELISA (PLK1 phosphorylation of Ser15-p53 in HeLa cells)) EUB0000698a PLK1; assay type: cell-based; design: mode of action Inhibitor, recommended concentration 100 nM
[24] = molecular target: T1, Leucine-rich repeat serine/threonine-protein kinase 2; experiment: Affinity On-target Cellular interaction (NanoBRET assay (HEK293T cells)) EUB0000706a LRRK2
[25] = Affinity On-target Cellular interaction (Cellular human mast cell degranulation assay) EUB0000714a SYK
[26] = molecular target: T3, Dual specificity protein kinase CLK1 (Homo sapiens, UniProt P49759); experiment: Affinity On-target Cellular interaction (NanoBRET assay (HEK293T cells)) EUB0000705a CLK1
[27] = molecular target: Dual specificity protein kinase CLK2 (Homo sapiens, UniProt P49760); experiment: Affinity On-target Cellular interaction (NanoBRET assay (HEK293T cells)) EUB0000705a CLK2
[28] = molecular target: T4, Dual specificity protein kinase CLK4 (Homo sapiens, UniProt Q9HAZ1); experiment: Affinity On-target Cellular interaction (NanoBRET assay (HEK293T cells)) EUB0000705a CLK4
[29] = molecular target: T3, Dual specificity protein kinase CLK1; experiment: Affinity On-target Cellular interaction (NanoBRET assay (HEK293T cells)) EUB0000321b CLK1; design: mode of action Inhibitor, recommended concentration 100 nM
[30] = molecular target: T4, Dual specificity protein kinase CLK4; experiment: Affinity On-target Cellular interaction (NanoBRET assay (HEK293T cells)) EUB0000321b CLK4; design: mode of action Inhibitor, recommended concentration 100 nM
[31] = molecular target: G-protein coupled receptor 52 (Homo sapiens, UniProt Q9Y2T5)

T4 sequence (Q9HAZ1 whole entry): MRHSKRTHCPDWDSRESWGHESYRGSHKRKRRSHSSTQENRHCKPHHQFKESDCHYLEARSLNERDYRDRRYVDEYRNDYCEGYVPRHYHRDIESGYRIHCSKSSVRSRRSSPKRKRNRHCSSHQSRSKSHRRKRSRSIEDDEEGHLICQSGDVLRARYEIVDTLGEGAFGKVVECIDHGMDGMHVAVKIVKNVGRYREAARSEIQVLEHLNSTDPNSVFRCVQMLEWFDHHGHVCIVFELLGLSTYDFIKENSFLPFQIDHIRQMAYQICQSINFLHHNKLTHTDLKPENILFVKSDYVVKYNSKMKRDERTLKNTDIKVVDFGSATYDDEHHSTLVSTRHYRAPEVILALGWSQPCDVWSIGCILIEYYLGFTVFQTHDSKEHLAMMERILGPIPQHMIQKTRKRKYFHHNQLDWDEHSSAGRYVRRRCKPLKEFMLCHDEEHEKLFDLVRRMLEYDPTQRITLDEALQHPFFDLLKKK
T3 sequence (P49759 whole entry): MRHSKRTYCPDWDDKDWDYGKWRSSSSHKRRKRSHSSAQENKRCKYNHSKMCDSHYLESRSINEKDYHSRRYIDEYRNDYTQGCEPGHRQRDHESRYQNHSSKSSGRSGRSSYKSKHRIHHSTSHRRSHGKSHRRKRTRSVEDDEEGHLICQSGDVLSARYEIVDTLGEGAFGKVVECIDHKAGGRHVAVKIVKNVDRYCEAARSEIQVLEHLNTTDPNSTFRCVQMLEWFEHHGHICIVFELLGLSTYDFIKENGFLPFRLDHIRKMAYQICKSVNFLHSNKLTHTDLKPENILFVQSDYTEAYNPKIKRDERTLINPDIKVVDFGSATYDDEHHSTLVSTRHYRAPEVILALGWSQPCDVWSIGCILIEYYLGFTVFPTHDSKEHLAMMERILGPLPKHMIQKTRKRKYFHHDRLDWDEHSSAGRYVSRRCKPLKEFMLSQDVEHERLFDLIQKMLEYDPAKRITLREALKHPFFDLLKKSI
T1 sequence (Q5S007 whole entry, the tested form may be a part): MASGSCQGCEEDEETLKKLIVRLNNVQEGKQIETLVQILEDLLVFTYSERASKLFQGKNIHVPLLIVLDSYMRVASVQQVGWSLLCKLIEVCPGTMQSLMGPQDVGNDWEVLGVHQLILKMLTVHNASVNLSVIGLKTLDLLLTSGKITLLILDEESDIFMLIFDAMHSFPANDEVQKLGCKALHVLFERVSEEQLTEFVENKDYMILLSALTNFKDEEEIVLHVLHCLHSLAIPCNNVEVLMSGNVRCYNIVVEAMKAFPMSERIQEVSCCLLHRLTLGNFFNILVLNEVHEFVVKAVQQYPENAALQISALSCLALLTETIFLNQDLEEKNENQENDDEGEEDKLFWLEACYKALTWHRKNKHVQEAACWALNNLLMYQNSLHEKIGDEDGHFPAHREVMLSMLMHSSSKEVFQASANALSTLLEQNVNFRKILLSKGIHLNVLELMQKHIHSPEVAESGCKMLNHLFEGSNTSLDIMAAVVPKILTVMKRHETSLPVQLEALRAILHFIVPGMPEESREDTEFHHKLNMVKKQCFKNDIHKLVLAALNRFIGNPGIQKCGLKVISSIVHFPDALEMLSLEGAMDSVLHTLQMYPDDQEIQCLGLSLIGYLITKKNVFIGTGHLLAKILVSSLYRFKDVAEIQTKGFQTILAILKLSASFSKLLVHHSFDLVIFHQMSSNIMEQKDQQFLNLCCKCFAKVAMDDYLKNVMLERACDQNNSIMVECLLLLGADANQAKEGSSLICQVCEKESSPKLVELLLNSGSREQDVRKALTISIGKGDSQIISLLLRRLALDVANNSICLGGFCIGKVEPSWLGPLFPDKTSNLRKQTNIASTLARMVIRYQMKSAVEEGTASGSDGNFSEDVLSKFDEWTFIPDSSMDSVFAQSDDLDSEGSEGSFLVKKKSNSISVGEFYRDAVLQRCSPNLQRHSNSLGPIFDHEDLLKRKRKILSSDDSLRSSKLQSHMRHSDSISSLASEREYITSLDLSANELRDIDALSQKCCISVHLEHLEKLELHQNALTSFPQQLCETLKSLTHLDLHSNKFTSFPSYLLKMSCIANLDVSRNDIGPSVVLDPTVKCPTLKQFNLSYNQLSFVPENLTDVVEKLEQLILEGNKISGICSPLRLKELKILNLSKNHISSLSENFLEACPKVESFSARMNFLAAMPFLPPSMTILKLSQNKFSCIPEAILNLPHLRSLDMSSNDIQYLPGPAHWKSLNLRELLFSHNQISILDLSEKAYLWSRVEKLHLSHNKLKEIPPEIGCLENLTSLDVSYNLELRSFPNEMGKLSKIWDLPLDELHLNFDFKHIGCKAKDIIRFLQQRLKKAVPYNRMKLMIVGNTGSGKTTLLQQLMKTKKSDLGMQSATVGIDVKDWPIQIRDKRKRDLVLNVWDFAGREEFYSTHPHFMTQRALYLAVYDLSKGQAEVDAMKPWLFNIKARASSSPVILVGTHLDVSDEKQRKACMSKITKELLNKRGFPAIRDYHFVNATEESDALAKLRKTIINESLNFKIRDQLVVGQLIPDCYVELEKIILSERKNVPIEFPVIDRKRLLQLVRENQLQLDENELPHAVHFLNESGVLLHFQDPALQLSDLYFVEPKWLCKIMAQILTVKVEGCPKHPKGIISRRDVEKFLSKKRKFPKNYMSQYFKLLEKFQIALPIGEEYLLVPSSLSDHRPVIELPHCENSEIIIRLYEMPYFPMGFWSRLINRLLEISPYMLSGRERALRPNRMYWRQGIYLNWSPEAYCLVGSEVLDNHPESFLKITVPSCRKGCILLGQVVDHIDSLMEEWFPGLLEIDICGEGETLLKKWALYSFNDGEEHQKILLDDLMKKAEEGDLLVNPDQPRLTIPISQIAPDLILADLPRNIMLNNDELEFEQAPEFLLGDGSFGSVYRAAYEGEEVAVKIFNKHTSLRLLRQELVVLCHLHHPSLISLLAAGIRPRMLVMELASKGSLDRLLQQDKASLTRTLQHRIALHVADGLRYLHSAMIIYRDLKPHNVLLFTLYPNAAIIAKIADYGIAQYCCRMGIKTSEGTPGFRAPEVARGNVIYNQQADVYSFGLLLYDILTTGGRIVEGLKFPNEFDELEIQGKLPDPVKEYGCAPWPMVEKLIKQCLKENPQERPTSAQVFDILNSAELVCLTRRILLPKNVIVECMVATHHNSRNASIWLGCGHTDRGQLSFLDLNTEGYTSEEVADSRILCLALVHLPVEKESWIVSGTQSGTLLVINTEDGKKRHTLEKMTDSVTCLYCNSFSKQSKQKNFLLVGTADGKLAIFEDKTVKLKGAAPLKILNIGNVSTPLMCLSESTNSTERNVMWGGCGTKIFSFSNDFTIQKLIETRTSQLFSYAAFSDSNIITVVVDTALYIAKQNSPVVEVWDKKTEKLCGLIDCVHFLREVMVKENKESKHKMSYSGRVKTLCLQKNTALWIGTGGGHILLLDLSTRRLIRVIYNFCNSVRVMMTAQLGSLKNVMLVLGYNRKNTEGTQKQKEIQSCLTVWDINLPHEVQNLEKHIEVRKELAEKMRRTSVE
Chain of Histone-lysine N-methyltransferase, H3 lysine-79 specific (Q8TEK3 whole entry): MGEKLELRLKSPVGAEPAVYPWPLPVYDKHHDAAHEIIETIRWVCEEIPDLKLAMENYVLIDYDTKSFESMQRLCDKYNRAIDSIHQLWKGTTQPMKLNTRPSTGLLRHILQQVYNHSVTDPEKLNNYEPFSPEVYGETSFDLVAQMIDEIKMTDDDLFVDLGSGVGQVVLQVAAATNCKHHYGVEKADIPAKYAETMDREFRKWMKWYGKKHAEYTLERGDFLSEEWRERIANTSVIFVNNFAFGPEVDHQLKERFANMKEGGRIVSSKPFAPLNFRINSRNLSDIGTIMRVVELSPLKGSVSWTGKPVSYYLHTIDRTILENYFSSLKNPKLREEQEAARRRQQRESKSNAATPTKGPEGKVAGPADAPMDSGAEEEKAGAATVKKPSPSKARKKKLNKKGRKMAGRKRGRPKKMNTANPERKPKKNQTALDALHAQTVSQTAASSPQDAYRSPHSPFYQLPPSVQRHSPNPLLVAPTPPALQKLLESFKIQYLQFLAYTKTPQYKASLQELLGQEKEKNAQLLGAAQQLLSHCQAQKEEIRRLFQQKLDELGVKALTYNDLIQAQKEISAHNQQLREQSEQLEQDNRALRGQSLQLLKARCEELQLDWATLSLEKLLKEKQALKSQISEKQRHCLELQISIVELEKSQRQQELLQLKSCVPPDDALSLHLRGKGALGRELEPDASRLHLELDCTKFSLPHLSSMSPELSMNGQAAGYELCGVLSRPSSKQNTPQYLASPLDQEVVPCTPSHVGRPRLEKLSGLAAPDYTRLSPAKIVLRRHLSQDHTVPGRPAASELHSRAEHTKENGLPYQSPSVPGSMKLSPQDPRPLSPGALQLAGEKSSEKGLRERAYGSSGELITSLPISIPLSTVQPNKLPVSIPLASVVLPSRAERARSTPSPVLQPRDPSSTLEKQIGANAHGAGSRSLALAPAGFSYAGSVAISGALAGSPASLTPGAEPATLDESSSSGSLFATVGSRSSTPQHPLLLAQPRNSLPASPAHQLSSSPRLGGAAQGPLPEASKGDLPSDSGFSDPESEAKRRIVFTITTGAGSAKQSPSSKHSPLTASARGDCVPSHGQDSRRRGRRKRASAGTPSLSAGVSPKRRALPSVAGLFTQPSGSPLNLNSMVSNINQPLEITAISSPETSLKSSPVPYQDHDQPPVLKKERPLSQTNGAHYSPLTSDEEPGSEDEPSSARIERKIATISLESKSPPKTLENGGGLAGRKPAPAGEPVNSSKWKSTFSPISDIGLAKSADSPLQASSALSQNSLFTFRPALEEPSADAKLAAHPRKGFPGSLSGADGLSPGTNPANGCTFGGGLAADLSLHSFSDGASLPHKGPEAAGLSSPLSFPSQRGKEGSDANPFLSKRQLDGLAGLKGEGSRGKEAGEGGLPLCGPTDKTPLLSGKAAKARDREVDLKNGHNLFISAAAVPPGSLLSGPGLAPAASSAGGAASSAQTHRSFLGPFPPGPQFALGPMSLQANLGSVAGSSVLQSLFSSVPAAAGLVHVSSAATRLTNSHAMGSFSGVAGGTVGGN

SMILES: CC(C)N(CCCNC(=O)Nc1ccc(C(C)(C)C)cc1)C[C@H]1O[C@@H](n2cc(Br)c3c(N)ncnc32)[C@H](O)[C@@H]1O
- IC50 [1]: 0.0026 µM

SMILES: CNc1nc(Nc2cnn([C@H]3CCN(C4COC4)C[C@@H]3F)c2Cl)ncc1C(F)(F)F
- IC50 [2]: 0.019 µM

SMILES: CCCOc1ccn2c(C(C)=O)cc(-c3cccc(OC)c3)c2c1
- Kd [3]: > 10 µM
- Kd [4]: > 10 µM

SMILES: Clc1cccc(-c2nnnn2Cc2cccnc2)c1Cl
- IC50 [5]: 0.051 µM

SMILES: CCC(=O)N1CCOc2c(cc(-c3ccc(OC)c(OC)c3)cc2OC[C@H]2CCCN(C)C2)C1
- IC50 (CREB-binding protein): 0.6 µM

SMILES: CCCS(=O)(=O)c1nc(NC2CC2)cc(-c2ccc3c(ccn3C3CC(C)(C)NC(C)(C)C3)c2)n1
- IC50 [6]: 0.255 µM

SMILES: Cc1nnc2c3ccccc3c(N[C@@H](C)[C@H](c3ccccc3)N(C)C)nn12
- IC50 [7]: 0.22 µM
- IC50 [8]: 0.66 µM

SMILES: Cc1c(C(=O)O)cc(-c2ccc(C3CCNCC3)cc2)c2ccc(-c3ccc(C(F)(F)F)cc3)cc12
- Ki [9]: 8.61 µM

SMILES: Cc1c(Nc2ccc(S(=O)(=O)N3CCN(C)CC3)cc2F)nc2ccc(Nc3cnn(C4CC4)c3)cn2c1=O
- IC50 [10]: > 10 µM

SMILES: Cc1c(Nc2ccc(S(=O)(=O)N3CCN(C)CC3)cc2F)nc2ccc(-c3cnn(C4CC4)c3)cn2c1=O
- IC50 [11]: 0.016 µM

SMILES: O=C([C@@H](Cc1cccc(C(F)(F)F)c1)NS(=O)(=O)c1cc(F)c2c(c1)CCNC2)N1CCCC1
- EC50 [12]: < 10 µM

SMILES: O=C(O)c1cc(-c2ccc(C3CCNCC3)cc2)c2ccc(-c3ccc(C(F)(F)F)cc3)cc2c1
- Potentiation inflection point [13]: > 10 µM

SMILES: CN(C)[C@H]1CCN(c2cc(-c3ccccc3)nc3ccnn23)C1 [(S)-ZINC-3573]
- EC50 [14]: > 100 µM

SMILES: CSc1cccnc1N1CCN(Cc2nc3ccccc3[nH]2)CC1 [A-769]
- EC50 (D(4) dopamine receptor): > 10 µM

SMILES: COc1ccc2c(c1)O[C@H](c1ccc(OC)c(OC)c1)C[C@@H]2NC(=O)C1(c2ccc3c(c2)OC(F)(F)O3)CC1 [A-1596584]
- EC50 [15]: > 3 µM

SMILES: CCCOc1ccc([C@@H]2[C@@H](C(=O)O)[C@H](c3ccc4c(c3)OCO4)CN2CC(=O)Nc2c(CC)cccc2CC)cc1 [A-1806262]
- IC50 [16]: > 10 µM

SMILES: Cc1cnc(-c2cc(Cl)ccc2F)cc1-n1c(=O)n(CC(N)=O)c2ccccc21 [Al11]
- IC50 (Activin receptor type-1B): > 10 µM
- IC50 (TGF-beta receptor type-1): > 10 µM

SMILES: CN(C)c1ncnc(-c2ccc3nc(Nc4cc(CN5CCN(C(=O)CC(F)(F)F)CC5)ccn4)[nH]c3c2)c1Cl [BAY-440]
- IC50 [17]: > 27 µM
- IC50 [18]: > 27 µM

SMILES: Cc1noc([C@H]2C[C@@H](c3ccc(C(F)(F)F)cc3)CN(C(=O)N3CCS(=O)(=O)C3)C2)n1 [BAY-448]
- IC50 [19]: > 10 µM

SMILES: O=C(Nc1ccc(Oc2ccc(F)cc2)cc1)N1CCc2ncccc2[C@H]1c1ccc(F)cc1 [BAY-897]
- IC50 [20]: > 16 µM

SMILES: CCOCCn1cc(C(=O)Nc2ccc(-n3nc(-c4cccnc4)cc3C(F)(F)F)cn2)ccc1=O [BI 1935]
- IC50 [21]: < 0.001 µM

SMILES: C[C@H](NC(=O)Nc1cc2[nH]ncc2c(CO)n1)c1ccccn1 [ERKi-NC]
- IC50 [22]: > 10 µM

SMILES: COc1cc2ncn(-c3cc(OCc4ccccc4C(F)(F)F)c(C(N)=O)s3)c2cc1OC [GW843682X]
- IC50 [23]: 0.14 µM

SMILES: C[C@@H]1CN(c2cc(-c3nn(C)c4ccc(OC5(C)CC5)cc34)ncn2)C[C@H](C)O1 [MLi-2-NC]
- EC50 [24]: 0.421 µM

SMILES: Cc1cc(Nc2nccc(C)n2)cc(-c2cnc([C@@]3(O)CC[C@H](C(=O)O)C(C)(C)C3)s2)c1 [MRL-SYKi]
- IC50 [25]: 0.038 µM

SMILES: CN1CCN(C(=O)C(C)(C)c2ccc(C(=O)Nc3cn4cc(-c5cc(C(C)(C)C)cc(C(C)(C)C)c5)ccc4n3)cc2)CC1 [T3-CLK-N]
- IC50 [26]: > 10 µM
- IC50 [27]: > 10 µM
- IC50 [28]: > 10 µM

SMILES: CN1CCN(C(=O)C(C)(C)c2ccc(C(=O)Nc3cn4cc(-c5ccncc5)ccc4n3)cc2)CC1 [T3-CLK]
- IC50 [29]: 0.004 µM
- IC50 [30]: > 0.002 µM

SMILES: Cc1nc(Cc2cccc(C(F)(F)F)c2)sc1-c1ccc(C(N)=O)nc1 [TP-024n]
- EC50 [31]: > 1 µM
